The record followed here is patent US9751885B2, “Cyclopropanamine compound and use thereof” (Takeda Pharmaceutical Company Limited, priority 2012, dated 2017).

Data set [1] concerns white blood cell number, red blood cell number, platelet number. The data set can be described thus: Evaluation of blood cell number in mouse. It counts as in vivo. The following applies: oral, Day 2 after administration. The procedure, abridged: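 Male ICR mice dosed orally at 1, 10, 50 or 100 mg/kg (suspension in 0.5% methylcellulose/0.02% citric acid/water); whole blood collected on Day 2. White cell, red cell and platelet counts per unit volume by automated haematology analyser, expressed as % of mean of untreated control group.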

In data set [2] the test system is Gad1 H3K4me2 level in rat primary culture neurons. The data set can be described thus: Gad1 H3K4 methylation induction activity in rat primary culture neurons (ChIP-qPCR). Type of data set: cell-based. The following applies: Rattus norvegicus, Neuron, 72 h, control without compound = 100%; for activity at 1 µM: read-out: Gad1 H3K4me2 induction activity (%), compound 1 μM, 3 days, rat primary culture neurons; for activity at 10 µM: read-out: Gad1 H3K4me2 induction activity (%), compound 10 μM, 3 days, rat primary culture neurons. The method, then:
Gad1 H3K4 Methylation Induction Activity in Rat Primary Culture Neurons
Thereafter, the compound was added to final concentrations of 1 or 10 μM, and the cells were further cultured for 3 days. The culture supernatant was aspirated, ice-cold PBS was added, and the cell suspension was collected on ice using CELL SCRAPER (IWAKI). […] (750 μL). Furthermore, 0.3% NP40/cell lysis buffer 1 (750 μL) was added, and the cells were lysed by incubating for 5 min on ice.
Using the DNA obtained by the chromatin immunoprecipitation as a template, quantitative PCR of the Gad1 gene upstream genomic region was performed, and the measurement value was taken as the Gad1 H3K4me2 level. […] The Gad1 H3K4me2 induction by the compound was expressed by the H3K4me2 level when the compound was added, as compared to the H3K4me2 level of the control (without addition of the compound) as 100%.
For orientation: Real-time PCR tracks product formation cycle by cycle.

Data set [3] is described as follows: Evaluation of hippocampal distribution in mouse. The following applies: male ICR mice, 10 mg/kg oral; for concentration at 0.5 h: 0.5 hr after administration; for concentration at 1 h: 1 hr after administration. It counts as in vivo. The procedure, abridged:
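Male ICR mice dosed orally at 10 mg/kg as suspension in 0.5% methylcellulose/0.02% citric acid/water. Plasma and hippocampus sampled together at 0.5, 1 or 1.5 h; LC/MS/MS concentrations gave hippocampus/plasma ratio.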

Where [4] appears, read: hippocampus, read-out: hippocampus concentration (mean).
Where [5] appears, read: plasma, read-out: plasma concentration (mean).

Structures are written as SMILES. Counter-ions that a name gives are not always drawn. Like-named read-outs stand apart in the source and are kept apart here.

On to `O=C(NC1CCN(CC(F)(F)F)CC1)c1cccc([C@@H]2C[C@H]2NCC2CC2)c1` (relative stereo) [Example 108, 3-(trans-2-((cyclopropylmethyl)amino)cyclopropyl)-N-(1-(2,2,2-trifluoroethyl)piperidin-4-yl)benzamide dihydrochloride], for which, in data set [1] (10 mg/kg), the “platelet number, percentage of compound administration group compared to control group, mean” value (from here on “platelet number, percentage”) is reported as 101.9%; the “red blood cell number, percentage of compound administration group compared to control group, mean” value (“red blood cell number, percentage” below) amounted to 99.0%; the “white blood cell number, percentage of compound administration group compared to control group, mean” value (“white blood cell number, percentage” for short) stood at 127.7%. For the same compound, in data set [1] (100 mg/kg), the “platelet number, percentage” value stood at 94.2%; the “red blood cell number, percentage” value was determined as 98.7%; the “white blood cell number, percentage” value worked out at 129.4%. Besides, in data set [2], the activity at 1 µM turned out to be 384% and the activity at 10 µM is 268%. Also, the concentration at 0.5 h in data set [3] (setting [4]) was 983 ng/g. Further, the concentration at 0.5 h in data set [3] (setting [5]) turned out to be 684 ng/mL.

As to `Cc1nnc(NC(=O)c2cc([C@@H]3C[C@H]3NCC3CC3)ccc2F)s1` (relative stereo) [Example 110, 5-(trans-2-((cyclopropylmethyl)amino)cyclopropyl)-2-fluoro-N-(5-methyl-1,3,4-thiadiazol-2-yl)benzamide dihydrochloride], in data set [1] (10 mg/kg), the “platelet number, percentage” value turned out to be 93.4%; the “red blood cell number, percentage” value came out at 98.7%; the “white blood cell number, percentage” value came out at 114.9%. For the same compound, in data set [1] (100 mg/kg), the “platelet number, percentage” value is listed as 96.4%; the “red blood cell number, percentage” value was 100.4%; the “white blood cell number, percentage” value is 112.0%. For the same compound, in data set [2], the activity at 1 µM was 172% and the activity at 10 µM stood at 208%. Moreover, the concentration at 0.5 h in data set [3] (setting [4]) is 3300 ng/g. For the same compound, in data set [3] (setting [5]), the concentration at 0.5 h was 4490 ng/mL.

Consider `Cc1nnc(NC(=O)c2cccc([C@@H]3C[C@H]3NC3CCOCC3)c2)s1` (relative stereo) [Example 165, N-(5-methyl-1,3,4-thiadiazol-2-yl)-3-(trans-2-(tetrahydro-2H-pyran-4-ylamino)cyclopropyl)benzamide fumarate], for which, in data set [1] (10 mg/kg), the “platelet number, percentage” value is on record as 99.3%; the “red blood cell number, percentage” value turned out to be 100.9%; the “white blood cell number, percentage” value turned out to be 104.4%. Besides, in data set [1] (100 mg/kg), the “platelet number, percentage” value came out at 85.6%; the “red blood cell number, percentage” value was determined as 103.2%; the “white blood cell number, percentage” value was found to be 87.0%. In addition, in data set [2], the activity at 1 µM is 272% and the activity at 10 µM is 373%. In addition, the concentration at 1 h in data set [3] (setting [4]) stood at 376 ng/g. Moreover, in data set [3] (setting [5]), the concentration at 1 h turned out to be 1840 ng/mL.

As to `O=C(NC1CCCC1)c1cccc([C@@H]2C[C@H]2NC2CCOCC2)c1` (relative stereo) [Example 168, N-cyclopentyl-3-(trans-2-(tetrahydro-2H-pyran-4-ylamino)cyclopropyl)benzamide hydrochloride], in data set [1] (10 mg/kg), the “platelet number, percentage” value is on record as 106.8%; the “red blood cell number, percentage” value is 106.5%; the “white blood cell number, percentage” value stood at 97.6%. In addition, in data set [1] (100 mg/kg), the “platelet number, percentage” value is 99.0%; the “red blood cell number, percentage” value is 101.1%; the “white blood cell number, percentage” value is 93.6%. Further, in data set [2], the activity at 1 µM came to 227% and the activity at 10 µM is 263%. In addition, in data set [3] (setting [4]), the concentration at 0.5 h was 439 ng/g. For the same compound, the concentration at 0.5 h in data set [3] (setting [5]) came out at 451 ng/mL.

Regarding `Cn1cc(NC(=O)c2cccc([C@@H]3C[C@H]3NC3CCCC3)c2)cn1` (relative stereo) [Example 172, 3-(trans-2-(cyclopentylamino)cyclopropyl)-N-(1-methyl-1H-pyrazol-4-yl)benzamide dihydrochloride], in data set [1] (10 mg/kg), the “platelet number, percentage” value came to 97.0%; the “red blood cell number, percentage” value turned out to be 99.0%; the “white blood cell number, percentage” value worked out at 101.3%. For the same compound, in data set [1] (100 mg/kg), the “platelet number, percentage” value stood at 99.6%; the “red blood cell number, percentage” value worked out at 97.7%; the “white blood cell number, percentage” value stood at 130.0%. In addition, in data set [2], the activity at 1 µM worked out at 145% and the activity at 10 µM was determined as 204%. Also, the concentration at 1 h in data set [3] (setting [4]) is 419 ng/g. Moreover, in data set [3] (setting [5]), the concentration at 1 h came to 556 ng/mL.

For the compound `Cc1nnc(NC(=O)c2cccc([C@@H]3C[C@H]3NC3CCN(C4CC4)CC3)c2)s1` (relative stereo) [Example 176, 3-(trans-2-((1-cyclopropylpiperidin-4-yl)amino)cyclopropyl)-N-(5-methyl-1,3,4-thiadiazol-2-yl)benzamide fumarate], in data set [1] (10 mg/kg), the “platelet number, percentage” value came out at 96.7%; the “red blood cell number, percentage” value was found to be 97.5%; the “white blood cell number, percentage” value was determined as 106.6%. In addition, in data set [1] (100 mg/kg), the “platelet number, percentage” value is 90.2%; the “red blood cell number, percentage” value amounted to 100.8%; the “white blood cell number, percentage” value was found to be 107.8%. Also, in data set [2], the activity at 1 µM came to 139% and the activity at 10 µM was 116%. Besides, the concentration at 1 h in data set [3] (setting [4]) was determined as 642 ng/g. In data set [3] (setting [5]), the concentration at 1 h came out at 515 ng/mL.

Regarding `O=C(NC1CCC(F)(F)CC1)c1cccc([C@@H]2C[C@H]2NC2CCOCC2)c1` (relative stereo) [Example 177, N-(4,4-difluorocyclohexyl)-3-(trans-2-(tetrahydro-2H-pyran-4-ylamino)cyclopropyl)benzamide hydrochloride], in data set [1] (10 mg/kg), the “platelet number, percentage” value is given as 101.3%; the “red blood cell number, percentage” value stood at 94.5%; the “white blood cell number, percentage” value was determined as 136.9%. In addition, in data set [1] (100 mg/kg), the “platelet number, percentage” value is 97.4%; the “red blood cell number, percentage” value is 99.0%; the “white blood cell number, percentage” value is 97.1%. In addition, in data set [2], the activity at 1 µM was found to be 340% and the activity at 10 µM is 200%. The concentration at 1 h in data set [3] (setting [4]) turned out to be 324 ng/g. In data set [3] (setting [5]), the concentration at 1 h is 630 ng/mL.
